Results taken from patent publication US20250345419A1, “TREATING CHEMORESISTANT CANCERS WITH NOTCH3 INHIBITORS” (Mayo Foundation for Medical Education and Research, priority 2022, published 2025).
Entries after “also recorded” stand apart in the source; their conditions may differ.

Key:
[1] = Toxicology studies, PTX with escalating doses of AV-353; assay type: in vivo, female NSG mice; details: PTX 10 mg/Kg, AV-353 100, 200, 400 ug
Description: FIG. 17 is a series of graphs plotting liver toxicity in mice treated with saline (CON), paclitaxel 10 mg/Kg (PTX), paclitaxel 10 mg/Kg+AV-353 100 ug (PTX+AV100), paclitaxel 10 mg/Kg+AV-353 200 ug (PTX+AV200), or paclitaxel 10 mg/Kg+AV-353 400 ug (PTX+AV400), based on measurements of liver function indicators: alanine aminotransferase (ALT), aspartate aminotransferase (AST), alkaline phosphatase (ALP), and total bilirubin (TBIL), as well as an indicator of kidney function (creatinine; CRE), and an indicator of general nutritional status (albumin; ALB). Blood samples (1 ml) were collected from animals, and liver enzyme analysis was carried out using a VETSCAN® instrument (Zoetis; Parsippany, NJ).
Toxicology studies: Female NSG mice received saline solution (control) or 10 mg/Kg paclitaxel (PTX) as monotherapy or in combination with escalating doses of AV-353 (AV100 ug, AV200 ug, and AV400 ug). PTX and AV-353 were administered intraperitoneally 3 times per week for 4 weeks. […] After drug treatment, animals were euthanized and organs of interest (liver and stomach) were paraffin embedded, sectioned, and hematoxylin and eosin stained. […] Although no liver damage was detected at the morphological or histological level, further studies were conducted to determine the extent to which the drug treatments induced an increase of liver enzymes. […]

[2] = tested on: 3D-MPS derived from SUM149-PT cells; experiment: Real-time growth of RFP-tagged 3D-mammospheres (3D-MPS); assay type: cell-based, human; details: SUM149-PT 3D-MPS, AV-353 100 ng and/or DTX 5 nM, 96 hours
Description: FIGS. 7A and 7B show results from treatment of 3D-mammospheres (3D-MPS) of SM149-PT TNBC cells with AV-353 (½ IC50: 100 ng) and/or DTX (½ IC50: 5 nM). FIG. 7A includes representative images of RFP-tagged 3DMPS before and after treatment with AV-353 (½ IC50: 100 ng) and/or DTX (½ IC50: 5 nM) for 96 hours, using Annexin-V (red) as a marker of early apoptosis. FIG. 7B is a graph plotting real-time growth of RFP-tagged 3D-MPS before and after treatment with AV-353 (½ IC50: 100 ng) and/or DTX (½ IC50: 5 nM) for 96 hours. 3D-MPS growth was quantified using the INCUCYTE® Cell Player System. Three independent experiments were performed in triplicate (±S.D.).
(§1) Mammospheres Formation: Human breast cancer cells were plated in ultra-low attachment 24-well and 96-well culture dishes in 100 μL of MAMMOCULT™ medium (STEMCELL™ Technologies; Vancouver, BC, Canada). Medium was added every 2 days for a maximum of 8 days. Mammospheres were trypsinized and expanded every 8 days to form tertiary mammospheres, and their growth was recorded through a digital camera (Nikon).
Real-Time Cell Proliferation, Cytotoxicity and Apoptosis Assays: 5,000 cells were plated in Costar […] plates, treated with Docetaxel (DTX) and/or AV-353 (as monotherapy or in combination). Cell proliferation was monitored in real-time by GFP or RFP fluorescence intensity, and Red Annexin-V was used as an early marker of apoptosis. […]

TNBC-M25 3D-MPS = experiment: TNBC-M25 mammosphere growth (area, Image-J); assay type: cell-based, human
Description: FIGS. 4A and 4B show NOTCH3 genetic targeting in TNBC-M25 mammospheres. FIG. 4A includes images of TNBCM25 single-cell dilutions grown under non-adherent conditions. After 48 hours of incubation, mammospheres were treated with 5 nM (½ IC50) or 10 nM (IC50) docetaxel (DTX) for 10 days. FIG. 4B is a graph plotting mammosphere area measured using the NIH Image-J software. Three independent experiments were performed in triplicate (±S.D.).
as §1
as §1, with “Mammosphere Formation:” for “Mammospheres Formation:”, “attachment 24-” for “attachment 24-well”, “(STEMCELL™ Technologies), and medium” for “(STEMCELL™ Technologies; Vancouver, BC, Canada). Medium”

Compound | liver and stomach histology (H&E) ([1]; 3 times per week for 4 weeks) | body weight ([1]; intraperitoneally 3 times per week for 4 weeks) | mammosphere (3D-MPS) growth [2] | IC50 (TNBC-M25 3D-MPS; Homo sapiens, TNBC-M25 mammospheres) [nM] | 3D-MPS growth (TNBC-M25 3D-MPS; TNBC-M25 3D-MPS)
CC(=O)O[C@H]1C(=O)[C@@]2(C)[C@H]([C@H](OC(=O)c3ccccc3)[C@]3(O)C[C@H](OC(=O)[C@H](O)[C@@H](NC(=O)c4ccccc4)c4ccccc4)C(C)=C1C3(C)C)[C@]1(OC(C)=O)CO[C@@H]1C[C@@H]2O [PTX, paclitaxel] | No significant damage; also recorded: no significant changes in the architecture of liver and stomach tissue | did not induce body weight loss | – | – | –
CC(=O)O[C@@]12CO[C@@H]1C[C@H](O)[C@@]1(C)C(=O)[C@H](O)C3=C(C)[C@@H](OC(=O)[C@H](O)[C@@H](NC(=O)OC(C)(C)C)c4ccccc4)C[C@@](O)([C@@H](OC(=O)c4ccccc4)[C@H]21)C3(C)C [DTX, docetaxel] | – | – | small effect on growth | 10 | did not inhibit 3D MPS growth
